In patent US20260265262A1, “CDK2 INHIBITORS AND METHODS OF USING THE SAME” (Cedilla Therapeutics, Inc., priority 2022, published 2026):

Columns and labels:
[1] = target: T1, CDK2/Cyclin E1 (Homo sapiens, UniProt P24941); assay: CDK2/Cyclin E1 Caliper LabChip EZ Reader mobility shift assay; assay type: biochemical; conditions: 2.5 nM CDK2/Cyclin E1, 100 μM ATP, 1.5 μM fluorescent peptide, 30 min pre-incubation; read-out: Caliper Assay (CDK2/CCNE1): IC50
Description: Inhibition of CDK2/Cyclin E1 activity in the presence of compounds of the present disclosure was evaluated using a CaliperLabChip® EZ Reader mobility shift assay. In the assay, CDK2/Cyclin E1 (Eurofins, 14-475) catalyzed the phosphorylation of a fluorescently tagged peptide 5-FAM-QSPKKG-CONH2 (PerkinEliner, FL Peptide 18) which induced a difference in capillary electrophoresis mobility. The peptide substrate and product were measured, and the conversion ratio was used to determine the inhibition (as % activity and IC50 values) of CDK2/Cyclin E1. Reactions contained 50 mM HEPES pH 7.5, 10 mM MgCl2, 1 mM EDTA, 2 mM DTT, 0.01% Brij35, 0.5 mg/mL BSA, 0.1% DMSO, 2.5 nM CDK2/Cyclin E1, 100 μM ATP, and 1.5 μM fluorescent peptide substrate.
Dose titrations of inhibitors in 100% DMSO were combined with 3.25 nM CDK2/Cyclin E1 and 130 μM of ATP in reaction buffer. The mixtures were incubated for 30 minutes before the addition of fluorescent peptide substrate to initiate the kinase reaction. The final conditions were 2.5 nM CDK2/Cyclin E1, 100 μM ATP, and 1.5 μM fluorescent peptide. The reactions were stopped after 100 minutes with the addition of EDTA (400 mM final EDTA concentration). The stopped reactions were analyzed on a Caliper LabChip® EZ Reader II. The conversion ratios were normalized to yield % activity, plotted against compound concentration, and fit to a four-parameter equation to determine the IC50 for each compound.

[2] = target: T1, CDK2/Cyclin E1; assay: ADP-Glo Luminescent Kinase Assay (CDK2/E1-37C); assay type: biochemical; conditions: 0.18 nM CDK2/Cyclin E1, 100 μM ATP, 1.5 μM Histone H1, 37° C., 60 min pre-incubation; read-out: ADPGLO (CDK2/E1-37C): IC50
In short: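 Human CDK2/Cyclin E1 preincubated with inhibitor 60 min at 37 °C, then reacted 90 min at 37 °C with final 0.18 nM enzyme, 100 μM ATP, 1.5 μM Histone H1 in HEPES pH 7.5 buffer. ADP formed read by ADP-Glo luminescence; IC50 from four-parameter fit.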

[3] = tested on: Kuramochi cells; assay: IncuCyte cell proliferation assay; assay type: cell-based; conditions: Kuramochi cells labeled with mApple-H2B, cell count 0 to 72 hours, 20 μM top concentration; read-out: IncuCyte Kuramochi RB-WT: IC50
In short: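 Kuramochi cells expressing mApple-H2B were treated with a 10-point, ½-log dilution series (top 20 μM). Fluorescent nuclei were counted by IncuCyte imaging at 0 and 72 h. The fold change in cell count was normalized to DMSO wells and fitted to dose-response curves to give […].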

C[C@@H](OCC1CCCCC1)[C@H](NC(=O)[C@@H]1CN(C(=O)c2cnn(Cc3ccccc3)c2)CC12CN(C(=O)[C@H]1CC1(C)C)C2)C(=O)N1CCC[C@@H](C(=O)O)C1 [Example I-46]
IC50 [1]: < 10 nM | IC50 [2]: < 500 nM | IC50 [3]: > 20000 nM

COC(=O)CCNC(=O)[C@@H](NC(=O)[C@@H]1CN(C(=O)c2cnn(Cc3ccccc3)c2)CC12CN(C(=O)[C@H]1CC1(C)C)C2)[C@@H](C)OCC1CCCCC1 [Example I-42]
IC50 [1]: < 10 nM | IC50 [2]: < 500 nM | IC50 [3]: < 500 nM

C[C@@H](OCC1(CO)CC=CCC1)C(NC(=O)[C@@H]1CN(C(=O)c2cnco2)CC12CN(C(=O)C(C)(C)C1CC1)C2)C(C)(C)O (single isomer, unassigned) [Example I-57]
IC50 [1]: 100 to 1000 nM | IC50 [3]: > 20000 nM

C[C@@H](OCC12CCC(CC1)OC2)[C@H](NC(=O)[C@@H]1CN(C(=O)c2cncs2)CC12CN(CC1CCCO1)C2)C(=O)N1CCC(c2nccs2)CC1 (stereo partly drawn) [Example I-44, (8S)—N-((2S,3R)-3-((2-oxabicyclo[2.2.2]octan-4-yl)methoxy)-1-oxo-1-(4-(thiazol-2-yl)piperidin-1-yl)butan-2-yl)-2-((tetrahydrofuran-2-yl)methyl)-6-(thiazole-5-carbonyl)-2,6-diazaspiro[3.4]octane-8-carboxamide]
IC50 [1]: > 10000 nM | IC50 [2]: > 100000 nM | IC50 [3]: > 20000 nM

COC[C@H]1CCCN(C(=O)[C@@H](NC(=O)[C@H]2CN(C(=O)c3cncs3)CC23CN(C(=O)[C@H]2CC2(C)C)C3)[C@@H](C)OCC2CCCCC2)C1 [Example I-116, (R)—N-((2S,3R)-3-(cyclohexylmethoxy)-1-((S)-3-(methoxymethyl)piperidin-1-yl)-1-oxobutan-2-yl)-2-((S)-2,2-dimethylcyclopropanecarbonyl)-6-(thiazole-5-carbonyl)-2,6-diazaspiro[3.4]octane-8-carboxamide]
IC50 [1]: 100 to 1000 nM | IC50 [3]: 5000 to 20000 nM

Cc1nc(C)c(C(=O)N2C[C@@H](C(=O)N[C@H](C(=O)N3CCC(OC(F)(F)F)CC3)[C@@H](C)OCC3(CO)CC=CCC3)C3(C2)CN(C(=O)[C@H]2CC2(C)C)C3)s1 (stereo in doubt) [Example I-51]
IC50 [1]: 10 to 100 nM | IC50 [3]: 500 to 5000 nM

CNC(=O)C(NC(=O)[C@@H]1CN(C(=O)c2cncs2)CC12CN(CC1CCCO1)C2)[C@@H](C)OCC12CCC(CC1)OC2 (stereo partly drawn) [Example I-59, (8S)—N-((3R)-3-((2-oxabicyclo[2.2.2]octan-4-yl)methoxy)-1-(methylamino)-1-oxobutan-2-yl)-2-((tetrahydrofuran-2-yl)methyl)-6-(thiazole-5-carbonyl)-2,6-diazaspiro[3.4]octane-8-carboxamide]
IC50 [1]: 100 to 1000 nM | IC50 [3]: 5000 to 20000 nM

C[C@@H](OCC1(CO)CC=CCC1)[C@H](NC(=O)[C@@H]1CN(C(=O)c2cncs2)CC12CN(C(=O)[C@H]1CC1(C)C)C2)C(=O)N1CCC(C)(C)CC1 (stereo partly shown) [Example I-53]
IC50 [1]: < 10 nM | IC50 [3]: < 500 nM

Cc1nc(C)c(C(=O)N2C[C@@H](C(=O)NC(C(=O)N3CCC(C(F)(F)F)CC3)[C@@H](C)OCC3(CO)CC=CCC3)C3(C2)CN(C(=O)[C@H]2CC2(C)C)C3)s1 (stereo partly drawn) [Example I-50, (8S)-2-((S)-2,2-dimethylcyclopropane-1-carbonyl)-6-(2,4-dimethylthiazole-5-carbonyl)-N-((2S,3R)-3-((1-(hydroxymethyl)cyclohex-3-en-1-yl)methoxy)-1-oxo-1-(4-(trifluoromethyl)piperidin-1-yl)butan-2-yl)-2,6-diazaspiro[3.4]octane-8-carboxamide]
IC50 [1]: < 10 nM | IC50 [3]: 500 to 5000 nM

COC1CCN(C(=O)[C@@H](NC(=O)[C@@H]2CN(C(=O)c3sc(C)nc3C)CC23CN(C(=O)[C@H]2CC2(C)C)C3)[C@@H](C)OCC2(CO)CC=CCC2)CC1 (stereo in doubt) [Example I-55]
IC50 [1]: 10 to 100 nM | IC50 [3]: > 20000 nM

COC1CCN(C(=O)[C@@H](NC(=O)[C@@H]2CN(C(=O)c3cncs3)CC23CN(C(=O)[C@H]2CC2(C)C)C3)[C@@H](C)OCC2(CO)CC=CCC2)CC1 (stereo in doubt) [Example I-54]
IC50 [1]: < 10 nM | IC50 [3]: 500 to 5000 nM

Cc1nc(C)c(C(=O)N2C[C@@H](C(=O)NC([C@@H](C)OCC3(CO)CC=CCC3)C(C)(C)O)C3(C2)CN(C(=O)C(C)(C)C2CC2)C3)s1 (stereo partly drawn) [Example I-56, (8S)-2-(2-cyclopropyl-2-methylpropanoyl)-6-(2,4-dimethylthiazole-5-carbonyl)-N-((4R)-2-hydroxy-4-((1-(hydroxymethyl)cyclohex-3-en-1-yl)methoxy)-2-methylpentan-3-yl)-2,6-diazaspiro[3.4]octane-8-carboxamide]
IC50 [1]: 1000 to 10000 nM | IC50 [3]: > 20000 nM

C[C@@H](OCC12CCC(CC1)OC2)[C@H](NC(=O)[C@@H]1CN(C(=O)c2cnn(Cc3ccccc3C(=O)O)c2)CC12CN(C(=O)C1(C(F)(F)F)CC1)C2)C(=O)N1CCN(Cc2ccc(C(F)(F)F)cc2)CC1 [Example I-14, 2-((4-((S)-8-(((2S,3R)-3-((2-oxabicyclo[2.2.2]octan-4-yl)methoxy)-1-oxo-1-(4-(4-(trifluoromethyl)benzyl)piperazin-1-yl)butan-2-yl)carbamoyl)-2-(1-(trifluoromethyl)cyclopropane-1-carbonyl)-2,6-diazaspiro[3.4]octane-6-carbonyl)-1H-pyrazol-1-yl)methyl)benzoic acid]
IC50 [2]: < 500 nM | IC50 [3]: > 20000 nM

C[C@@H](OCC12CCC(CC1)OC2)[C@H](NC(=O)[C@@H]1CN(C(=O)c2cnn(Cc3ccccc3C(=O)O)c2)CC12CN(C(=O)C1(C(F)(F)F)CC1)C2)C(=O)N1CCC(c2nccs2)CC1 [Example I-88, 2-((4-((S)-8-(((2S,3R)-3-(2-oxabicyclo[2.2.2]octan-4-ylmethoxy)-1-oxo-1-(4-(thiazol-2-yl)piperidin-1-yl)butan-2-yl)carbamoyl)-2-(1-(trifluoromethyl)cyclopropanecarbonyl)-2,6-diazaspiro[3.4]octane-6-carbonyl)-1H-pyrazol-1-yl)methyl)benzoic acid]
IC50 [2]: < 500 nM | IC50 [3]: > 20000 nM

C[C@@H](OCC12CCC(CC1)OC2)[C@H](NC(=O)[C@@H]1CN(C(=O)c2cnn(Cc3ccc(C(F)(F)F)cc3)c2)CC12CN(C(=O)C1(C(F)(F)F)CC1)C2)C(=O)N1CCC(c2ccc(C(=O)O)nc2)CC1 [Example I-92, 5-(1-(O-((2-oxabicyclo[2.2.2]octan-4-yl)methyl)-N—((S)-6-(1-(4-(trifluoromethyl)benzyl)-1H-pyrazole-4-carbonyl)-2-(1-(trifluoromethyl)cyclopropane-1-carbonyl)-2,6-diazaspiro[3.4]octane-8-carbonyl)-L-threonyl)piperidin-4-yl)picolinic acid]
IC50 [2]: < 500 nM | IC50 [3]: > 20000 nM

C[C@@H](OCC12CCC(CC1)OC2)[C@H](NC(=O)[C@@H]1CN(C(=O)c2cncs2)CC12CN(C(=O)C1(C(F)(F)F)CC1)C2)C(=O)N1CCC(c2nccs2)CC1 [Example I-34, (S)—N-((2S,3R)-3-((2-oxabicyclo[2.2.2]octan-4-yl)methoxy)-1-oxo-1-(4-(thiazol-2-yl)piperidin-1-yl)butan-2-yl)-6-(thiazole-5-carbonyl)-2-(1-(trifluoromethyl)cyclopropane-1-carbonyl)-2,6-diazaspiro[3.4]octane-8-carboxamide]
IC50 [2]: < 500 nM | IC50 [3]: 500 to 5000 nM

C[C@@H](OCC12CCC(CC1)OC2)[C@H](NC(=O)[C@@H]1CN(C(=O)c2cnn(Cc3ccc(C(F)(F)F)cc3)c2)CC12CN(C(=O)C1(C(F)(F)F)CC1)C2)C(=O)N1CCC(c2ccc(C(=O)O)cc2)CC1 [Example I-12]
IC50 [2]: < 500 nM | IC50 [3]: > 20000 nM
